Reference: US20180255816A1, “SWEETENERS HAVING ENHANCED ORGANOLEPTIC PROPERTIES” (CORNELL UNIVERSITY, priority 2015, published 2018)

Experiments:
[1] = compared with dulcoside A; cited from earlier work
[2] = molecular target: bovine serum albumin (BSA) (Bos taurus, UniProt P02769); experiment: Saturation transfer difference (STD) NMR binding screen with BSA
From the text: A first step is to assess binding of the protein to ligand under investigation. Saturation transfer difference (STD) NMR spectroscopy was utilized to screen ligands for binding to proteins. The method is based on the transfer of saturation from the protein to the bound ligands, which exchange into solution where they are detected as a reduction in the intensity of the free ligand signal. By subtracting the spectrum in which the protein is saturated from a spectrum without protein saturation produces a spectrum showing only the difference in which only the signals of the ligand(s) remain. This method was used to identify binding epitopes, because the ligand residues in direct contact with the protein show faster build-up of STD signals. This method involves a several-fold excess of ligand concentration over protein, allowing low […] protein concentrations to be used. […]
FIG. 2A is the pre-saturated 600 MHz ^1H NMR spectrum of a 2 mM rebaudioside A and 50 μM BSA in filtered orange juice with 10% D2O at 25° C. A STD spectrum (FIG. 2B) of 2 mM rebaudioside A and 50 μM BSA in filtered orange juice with on- and off-resonance saturation at 8.56 and 31 ppm, respectively was recorded to validate the stability of rebaudioside A—BSA complex in a natural and complex food matrix. […]

β-lactoglobulin = molecular target: T1, β-lactoglobulin (Bos taurus, UniProt P02754); experiment: STD NMR binding with β-lactoglobulin; details: 1 mM rebaudioside A, 20 μM β-lactoglobulin, 40° C., pH 3
T1 sequence (P02754 17-178): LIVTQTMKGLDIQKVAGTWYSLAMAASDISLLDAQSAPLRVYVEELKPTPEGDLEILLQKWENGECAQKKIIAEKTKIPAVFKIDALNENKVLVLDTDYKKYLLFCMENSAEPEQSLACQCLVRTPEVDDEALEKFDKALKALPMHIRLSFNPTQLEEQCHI
From the text: A first step is to assess binding of the protein to ligand under investigation. Saturation transfer difference (STD) NMR spectroscopy was utilized to screen ligands for binding to proteins. The method is based on the transfer of saturation from the protein to the bound ligands, which exchange into solution where they are detected as a reduction in the intensity of the free ligand signal. By subtracting the spectrum in which the protein is saturated from a spectrum without protein saturation produces a spectrum showing only the difference in which only the signals of the ligand(s) remain. This method was used to identify binding epitopes, because the ligand residues in direct contact with the protein show faster build-up of STD signals. This method involves a several-fold excess of ligand concentration over protein, allowing low […] protein concentrations to be used.
FIG. 8A is the solvent suppressed (WET) ^1H NMR spectrum of a sample containing 1 mM rebaudioside A and 20 μM β-lactoglobulin at 40° C. and pH 3. FIG. 8B is the STD spectrum of the same sample. Separate FIDs were stored with on-resonance saturation at 7.19 ppm and off-resonance saturation at −15 ppm.

panelists = experiment: Paired comparison taste test of organoleptic properties by 5 panelists; assay type: in vivo; details: taste panel, solution in 50 mL
From the text: The following compositions were formulated and tested for their organoleptic properties through a paired comparison test by 5 panelists.

Chain of bovine serum albumin (BSA) (P02769 25-607): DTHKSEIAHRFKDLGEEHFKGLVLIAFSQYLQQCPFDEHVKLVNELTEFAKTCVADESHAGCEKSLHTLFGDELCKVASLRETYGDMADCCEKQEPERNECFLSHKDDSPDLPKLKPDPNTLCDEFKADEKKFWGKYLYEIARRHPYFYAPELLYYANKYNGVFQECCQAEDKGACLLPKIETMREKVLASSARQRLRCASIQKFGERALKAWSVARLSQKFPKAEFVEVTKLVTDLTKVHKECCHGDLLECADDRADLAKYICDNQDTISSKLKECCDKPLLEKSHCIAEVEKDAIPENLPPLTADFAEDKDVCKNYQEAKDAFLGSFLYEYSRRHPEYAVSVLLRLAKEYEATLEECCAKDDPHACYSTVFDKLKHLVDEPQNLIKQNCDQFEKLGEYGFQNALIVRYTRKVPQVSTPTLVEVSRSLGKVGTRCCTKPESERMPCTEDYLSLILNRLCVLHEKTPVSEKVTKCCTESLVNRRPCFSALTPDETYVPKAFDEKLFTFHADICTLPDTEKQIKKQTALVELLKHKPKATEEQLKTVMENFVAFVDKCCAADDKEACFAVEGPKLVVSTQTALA

Compound | bitterness relative to dulcoside A [1] | sweetness relative to dulcoside A [1] | binding to BSA by STD spectrum ([2]; 1 mM rebaudioside A, 20 μM BSA, D2O, pH 3.0, 40° C., saturation at 7.19 ppm) | binding to BSA by STD spectrum in food matrix ([2]; 2 mM rebaudioside A, 50 μM BSA, filtered orange juice with 10% D2O, 25° C.) | binding to β-lactoglobulin by STD spectrum (β-lactoglobulin) | Quality: bitter after taste (panelists) | Quality: onset of sweetness (panelists)
C=C1C[C@@]23CC[C@H]4[C@@](C)(CCC[C@@]4(C)C(=O)O[C@@H]4O[C@H](CO)[C@@H](O)[C@H](O)[C@H]4O[C@@H]4O[C@H](CO)[C@@H](O)[C@H](O)[C@H]4O)[C@@H]2CC[C@]1(O[C@@H]1O[C@H](CO)[C@@H](O)[C@H](O[C@@H]2O[C@H](CO)[C@@H](O)[C@H](O)[C@H]2O)[C@H]1O[C@@H]1O[C@H](CO)[C@@H](O)[C@H](O)[C@H]1O)C3 [rebaudioside D] | two-thirds less bitter | around five times sweeter |  |  |  |  | 
rebaudioside A |  |  | binds to BSA | specific binding between Rebaudioside A and BSA occurs | capable of binding to β-lactoglobulin | sweetness and bitter after taste | Slow onset of sweetness
